In PMC8335727 (Inorganic Chemistry, 2021):

System: Colo320 cells
Experiment: Annexin-V-FITC/PI apoptosis induction assay (flow cytometry)
Assay type: cell-based, human
Details: for Cell death % Q1 / Early apoptosis % Q3 / Late apoptosis and necrosis % Q2: 3 h induction
Experimental: To gain further insights into the cytotoxic behavior of the compounds, apoptosis induction by lead compounds HL^1 and [Cu(L^2)Cl] was investigated by a flow cytometry analysis of multidrug-resistant Colo320 cells stained with Annexin-V-FITC and propidium iodide (PI).
Colo320 cells were treated at the indicated concentration of the drugs. The dual parametric dot plots that combine the Annexin-V (FL1) and PI (FL3) fluorescence show the viable cell population in the lower-left quadrant Annexin-V–/PI– (Q4), the early apoptotic cells in the lower-right quadrant Annexin-V+/PI– (Q3), and the late apoptotic and necrotic cells in the upper-right quadrant Annexin-V+/PI+ (Q2). […]
2.5.3. Mechanisms of cell death: assay for apoptosis induction
The assay was carried out for selected compounds using an Annexin V-FITC Apoptosis Detection
Kit (Cat. No. APOAF-50TST) from Sigma according to the manufacturer's instructions. The
concentration of the Colo320 cell suspension was adjusted to approximately 0.5 × 10^6 cells per
mL in RPMI medium and the cell suspension was distributed in 1 mL aliquots into a 24-well plate,
and then incubated overnight at 37 °C and 5% CO2. On the following day, the medium was
removed and replaced by 1 mL RPMI medium containing the compounds except the control
samples. Colo320 cells were incubated in the presence of the compounds at 4 and 8 μM (HL1), or
0.25 and 0.50 μM (Cu(HL2)Cl2) in the 24-well plate at 37 °C for 3 h, and 12H-
controls. After the incubation period the samples were washed with PBS and fresh RPMI medium
was added to the samples. The cells were incubated overnight at 37 °C and 5% CO2. The next day,
200 μL 0.25% Trypsin (Trypsin-Versen) was added to the samples until cells appeared detached
followed by the addition of 400 μL of RPMI medium supplemented with 10% bovine serum. The
cells were collected in Eppendorf tubes and centrifuged at 2000 g for 2 min. The harvested cells
were resuspended in fresh serum free RPMI medium culture medium. After this step, the apoptosis
assay was carried out according to the instructions of the manufacturer. The fluorescence was
analyzed immediately using a ParTec CyFlow flow cytometer (Partec GmbH, Münster, Germany). […]

Cc1cc(NC(=S)NN=Cc2ccccn2)cc(C)c1O [HL^1, 2-Formylpyridine 4-(4-hydroxy-3,5-dimethylphenyl)thiosemicarbazone]
Cell death % Q1 (4 µM): 2.79% | Early apoptosis % Q3 (4 µM): 6.19% | Late apoptosis and necrosis % Q2 (4 µM): 12.4% | Cell death % Q1 (8 µM): 1.57% | Early apoptosis % Q3 (8 µM): 7.65% | Late apoptosis and necrosis % Q2 (8 µM): 7.0% | viability at 4 µM (Homo sapiens, COLO 320, 4 μM, read-out: viable cell population Q4): 78.6%
